What was measured:
T47D cells = assay: Cellular growth inhibition assay for T47D cells, CellTiter-Glo; format: cell-based, human; settings: 72 hours treatment, CellTiter-Glo 2.0 cell viability
How it was run: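 Cells are plated at 3000/well and allowed 24 h before treatment. Test compound in medium containing 0.5% DMSO is then added, with DMSO-only wells as negative control, and plates are incubated 72 h at 37 °C. ATP luminescence (CellTiter-Glo 2.0) is then fitted to four parameters to derive GI50.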

VCaP cells = assay: Cellular growth inhibition assay for VCaP cells, CellTiter-Glo; format: cell-based, human; settings: 72 hours treatment, CellTiter-Glo 2.0
How it was run: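 GI50 values come from four-parameter curve fits of luminescence data normalized to a zero baseline. Compound, in medium with 0.5% DMSO, was added one day after plating and left for 72 h before CellTiter-Glo 2.0 addition.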

[1] = tested on: T-Rex 293 cell line SC3 cells having increased expression of androgen receptor protein due to exposure to doxycycline; assay: Cellular growth inhibition, T-Rex 293 SC3 cells with doxycycline (androgen receptor induced), CellTiter-Glo; format: cell-based; settings: T-Rex 293 SC3 cells with 10 ng/mL doxycycline (increased androgen receptor expression)
How it was run: (§1)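 Growth inhibition was compared in a T-Rex 293 clone with and without doxycycline (10 ng/mL)-driven androgen receptor overexpression. Compounds were applied for 72 h in hormone-depleted serum, and GI50 came from four-parameter curves of CellTiter-Glo signal.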

[2] = tested on: T-Rex 293 cell line SC3 cells lacking increased expression of androgen receptor protein; assay: Cellular growth inhibition, T-Rex 293 SC3 cells without doxycycline, CellTiter-Glo; format: cell-based; settings: T-Rex 293 SC3 cells not exposed to doxycycline, CellTiter-Glo 2.0
How it was run: as §1

Row | SMILES | GI50 (T47D cells) [nM] | GI50 (VCaP cells) [nM] | GI50 (T47D cells; Homo sapiens, T47D, 72 h) [nM] | GI50 (VCaP cells; Homo sapiens, VCaP, 72 h) [nM] | GI50 ([1]; 72 h) [nM] | GI50 ([2]; 72 hours) [nM] | GI50 ([1]; 72 hours) [nM] | GI50 ([2]; 72 h) [nM]
1 | Cc1sc2c(c1C)C(c1ccc(N3CCC4(CC3)CC(Cc3ncc(C(=O)N[C@H]5C(C)(C)[C@H](Oc6ccc(C#N)c(Cl)c6)C5(C)C)cn3)C4)cc1)=NC(Cc1ncco1)c1nnc(C)n1-2 (stereo partly shown) [Compound I-459] | 1500 to 3000 | > 3000 |  |  | < 500 | > 3000 |  | 
2 | Cc1sc2c(c1C)C(c1ccc(OC3CC4(CCN(c5ncc(C(=O)N[C@H]6C(C)(C)[C@H](Oc7ccc(C#N)c(Cl)c7)C6(C)C)cn5)CC4)C3)cc1)=NC1(CC1)c1nnc(C)n1-2 [Compound I-461] |  |  | < 500 | < 500 | < 500 |  |  | 500 to 1500
3 | Cc1sc2c(c1C)C(c1ccc(C(C)(C)N3CC4(CCCN(c5ncc(C(=O)N[C@H]6C(C)(C)[C@H](Oc7ccc(C#N)c(Cl)c7)C6(C)C)cn5)C4)C3)cc1)=N[C@@H](C)c1nnc(C)n1-2 [Compound I-464] |  |  | > 3000 | < 500 | < 500 |  |  | > 3000
4 | Cc1sc2c(c1C)C(c1ccc(C3CC(C4CCN(c5ncc(C(=O)N[C@H]6C(C)(C)[C@H](Oc7ccc(C#N)c(Cl)c7)C6(C)C)cn5)CC4)C3)cc1)=NC(C)c1nnc(C)n1-2 (stereo partly shown) [Compound I-465] |  | < 500 | < 500 |  | < 500 |  |  | > 3000
5 | Cc1sc2c(c1C)C(c1ccc(C3CC(C4CCN(c5ncc(C(=O)N[C@H]6C(C)(C)[C@H](Oc7ccc(C#N)c(Cl)c7)C6(C)C)cn5)CC4)C3)cc1)=NC(C)c1nnc(C)n1-2 (stereo partly shown) [Compound I-466] | < 500 | > 3000 |  |  |  | > 3000 | < 500 | 
6 | Cc1sc2c(c1C)C(c1ccc(C3CC(C4CCN(c5ncc(C(=O)N[C@H]6C(C)(C)[C@H](Oc7ccc(C#N)c(Cl)c7)C6(C)C)cn5)CC4)C3)cc1)=NC(C)c1nnc(C)n1-2 (stereo partly shown) [Compound I-467] | < 500 | < 500 |  |  |  | > 3000 | < 500 | 
7 | Cc1sc2c(c1C)C(c1ccc(C3CC(C4CCN(c5ncc(C(=O)N[C@H]6C(C)(C)[C@H](Oc7ccc(C#N)c(Cl)c7)C6(C)C)cn5)CC4)C3)cc1)=NC(C)c1nnc(C)n1-2 (stereo partly shown) [Compound I-468] | < 500 | < 500 |  |  |  | > 3000 | < 500 | 
8 | Cc1sc2c(c1C)C(c1ccc(C3CC(C4CCN(c5cnc(C(=O)N[C@H]6C(C)(C)[C@H](Oc7ccc(C#N)c(Cl)c7)C6(C)C)cn5)CC4)C3)cc1)=NC(C)c1nnc(C)n1-2 (stereo partly shown) [Compound I-470] | 500 to 1500 | < 500 |  |  |  | > 3000 | < 500 | 
9 | Cc1sc2c(c1C)C(c1ccc(C3CC(C4CCN(c5cnc(C(=O)N[C@H]6C(C)(C)[C@H](Oc7ccc(C#N)c(Cl)c7)C6(C)C)cn5)CC4)C3)cc1)=NC(C)c1nnc(C)n1-2 (stereo partly shown) [Compound I-472] | < 500 | > 3000 |  |  |  | > 3000 | > 3000 | 
10 | Cc1sc2c(c1C)C(c1ccc(N3CC(C4CCCN(c5ncc(C(=O)N[C@H]6C(C)(C)[C@H](Oc7ccc(C#N)c(Cl)c7)C6(C)C)cn5)C4)C3)cc1)=N[C@@H](C)c1nnc(C)n1-2 (stereo partly shown) [Compound I-473] | > 3000 |  |  | > 3000 | < 500 | > 3000 |  | 
11 | Cc1sc2c(c1C)C(c1ccc(C3CC(CC4CN(c5ncc(C(=O)N[C@H]6C(C)(C)[C@H](Oc7ccc(C#N)c(Cl)c7)C6(C)C)cn5)C4)C3)cc1)=NC(Cc1ncco1)c1nnc(C)n1-2 (stereo partly shown) [Compound I-476] |  |  | < 500 | < 500 | < 500 |  |  | < 500
12 | Cc1sc2c(c1C)C(c1ccc(N3CCC(CCc4cnc(C(=O)N[C@H]5C(C)(C)[C@H](Oc6ccc(C#N)c(Cl)c6)C5(C)C)cn4)CC3)cc1)=N[C@@H](Cc1ncco1)c1nnc(C)n1-2 [Compound I-478] |  |  | 500 to 1500 | < 500 | < 500 |  |  | 500 to 1500
13 | Cc1sc2c(c1C)C(c1ccc(C(C)(C)CN3CC4(CCCN(c5ncc(C(=O)NC6C(C)(C)C(Oc7ccc(C#N)c(Cl)c7)C6(C)C)cn5)C4)C3)cc1)=N[C@@H](Cc1ncco1)c1nnc(C)n1-2 (stereo partly shown) [Compound I-479] |  |  | 500 to 1500 | < 500 | < 500 |  |  | 500 to 1500
14 | Cc1sc2c(c1C)C(c1ccc(-c3cc(C4CCN(c5ncc(C(=O)N[C@H]6C(C)(C)[C@H](Oc7ccc(C#N)c(Cl)c7)C6(C)C)cn5)CC4)cs3)cc1)=N[C@@H](Cc1ncco1)c1nnc(C)n1-2 [Compound I-480] |  |  | > 3000 | < 500 | < 500 |  |  | > 3000
15 | Cc1sc2c(c1C)C(c1ccc(N3CC(CC4CN(c5ncc(C(=O)N[C@H]6C(C)(C)[C@H](Oc7ccc(C#N)c(Cl)c7)C6(C)C)cn5)C4)C3)cc1)=N[C@@H](C)c1nnc(C)n1-2 [Compound I-514] |  |  | 500 to 1500 | > 3000 | < 500 |  |  | > 3000
16 | Cc1sc2c(c1C)C(c1ccc(CC3CC4(CCN(c5cnc(C(=O)N[C@H]6C(C)(C)[C@H](Oc7ccc(C#N)c(Cl)c7)C6(C)C)cn5)CC4)C3)cc1)=N[C@@H](Cc1ncco1)c1nnc(C)n1-2 [Compound I-547] |  |  | < 500 | > 3000 | < 500 |  |  | < 500
17 | Cc1sc2c(c1C)C(c1ccc(CC3CC4(CCN(c5ccc(C(=O)N[C@H]6C(C)(C)[C@H](Oc7ccc(C#N)c(Cl)c7)C6(C)C)cn5)CC4)C3)cc1)=N[C@@H](Cc1ncco1)c1nnc(C)n1-2 [Compound I-548] |  |  | < 500 | 500 to 1500 | < 500 |  |  | < 500
18 | Cc1sc2c(c1C)C(c1ccc(CC3CCN(c4ncc(C(=O)N[C@H]5C(C)(C)[C@H](Oc6ccc(C#N)c(Cl)c6)C5(C)C)cn4)CC3)cc1)=NC1(CC1)c1nnc(C)n1-2 [Compound I-555] |  |  | > 3000 | < 500 | < 500 |  |  | 500 to 1500

Second part, led by results:

Row | GI50 (T47D cells) [nM] | GI50 (VCaP cells) [nM] | GI50 (T47D cells; Homo sapiens, T47D, 72 h) [nM] | GI50 (VCaP cells; Homo sapiens, VCaP, 72 h) [nM] | SMILES | GI50 ([1]; 72 h) [nM] | GI50 ([2]; 72 hours) [nM] | GI50 ([1]; 72 hours) [nM] | GI50 ([2]; 72 h) [nM]
19 | < 500 | < 500 |  |  | Cc1sc2c(c1C)C(c1ccc(N3CCC4(CC3)CC(Cc3ncc(C(=O)N[C@H]5C(C)(C)[C@H](Oc6ccc(C#N)c(Cl)c6)C5(C)C)cn3)C4)cc1)=NC(Cc1ncco1)c1nnc(C)n1-2 (stereo partly shown) [Compound I-460] |  | 500 to 1500 | < 500 | 
20 |  |  | 500 to 1500 | < 500 | Cc1sc2c(c1C)C(c1ccc(C#CC3CC4(C3)CN(c3ncc(C(=O)N[C@H]5C(C)(C)[C@H](Oc6ccc(C#N)c(Cl)c6)C5(C)C)cn3)C4)cc1)=NC1(CC1)c1nnc(C)n1-2 [Compound I-462] | < 500 |  |  | 500 to 1500
21 |  | < 500 | < 500 |  | Cc1sc2c(c1C)C(c1ccc(C3CC(C4CCN(c5cnc(C(=O)N[C@H]6C(C)(C)[C@H](Oc7ccc(C#N)c(Cl)c7)C6(C)C)cn5)CC4)C3)cc1)=NC(C)c1nnc(C)n1-2 (stereo partly shown) [Compound I-469] |  | 500 to 1500 | < 500 | 
22 | < 500 | > 3000 |  |  | Cc1sc2c(c1C)C(c1ccc(C3CC(C4CCN(c5cnc(C(=O)N[C@H]6C(C)(C)[C@H](Oc7ccc(C#N)c(Cl)c7)C6(C)C)cn5)CC4)C3)cc1)=NC(C)c1nnc(C)n1-2 (stereo partly shown) [Compound I-471] |  | > 3000 | 500 to 1500 | 
23 | < 500 | > 3000 |  |  | Cc1sc2c(c1C)C(c1ccc(N3CC(C4CCCN(c5ncc(C(=O)N[C@H]6C(C)(C)[C@H](Oc7ccc(C#N)c(Cl)c7)C6(C)C)cn5)C4)C3)cc1)=N[C@@H](C)c1nnc(C)n1-2 (stereo partly shown) [Compound I-474] |  | 500 to 1500 | < 500 | 
24 |  |  | < 500 | < 500 | Cc1sc2c(c1C)C(c1ccc(C3CC(N4CCN(c5ncc(C(=O)N[C@H]6C(C)(C)[C@H](Oc7ccc(C#N)c(Cl)c7)C6(C)C)cn5)CC4)C3)cc1)=N[C@@H](Cc1ncco1)c1nnc(C)n1-2 (stereo partly shown) [Compound I-475] | < 500 |  |  | 500 to 1500
25 | < 500 | < 500 |  |  | Cc1sc2c(c1C)C(c1ccc(C3CC(CC4CN(c5ncc(C(=O)N[C@H]6C(C)(C)[C@H](Oc7ccc(C#N)c(Cl)c7)C6(C)C)cn5)C4)C3)cc1)=NC(Cc1ncco1)c1nnc(C)n1-2 (stereo partly shown) [Compound I-477] |  | < 500 | < 500 | 
26 |  |  | < 500 | < 500 | Cc1sc2c(c1C)C(c1ccc(C(F)(F)N3CC4(CCN(c5ncc(C(=O)N[C@H]6C(C)(C)[C@H](Oc7ccc(C#N)c(Cl)c7)C6(C)C)cn5)CC4)C3)cc1)=N[C@@H](Cc1ncco1)c1nnc(C)n1-2 [Compound I-504] | < 500 |  |  | > 3000
27 |  |  | < 500 | < 500 | Cc1sc2c(c1C)C(c1ccc(C3(C4CC5(CCN(c6ncc(C(=O)N[C@H]7C(C)(C)[C@H](Oc8ccc(C#N)c(Cl)c8)C7(C)C)cn6)CC5)C4)CC3)cc1)=N[C@@H](Cc1ncco1)c1nnc(C)n1-2 [Compound I-525] | < 500 |  |  | > 3000
28 |  |  | < 500 | < 500 | Cc1sc2c(c1C)C(c1ccc(OC3CC4(C3)CC3(CCN(c5ccc(C(=O)N[C@H]6C(C)(C)[C@H](Oc7ccc(C#N)c(Cl)c7)C6(C)C)cn5)CC3)C4)cc1)=N[C@@H](C)c1nnc(C)n1-2 [Compound I-550] | < 500 |  |  | > 3000

Reference: US20260062422A1 (Halda Therapeutics OpCo, Inc., priority 2022, published 2026)
